Assays:
Assay type in all cases: biochemical
ROCK1 = ROCK1 (Homo sapiens, UniProt Q13464); experiment: In vitro inhibitory activity assay ROCK1 (ADP-Glo); settings: ATP 200 μM, Cheng-Prusoff; read-out: ROCK 1 (Ki, range of activity)
Procedure, shortened: (§1)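 ROCK1 or ROCK2 preincubated 30 min with compound (1% DMSO) at 25 °C, then run 1 h with 2.5 μM myelin basic protein and 200 μM ATP in Tris pH 7.5/MgCl2 buffer. ADP detected by ADP-Glo luminescence; IC50 from variable-slope fit, converted to Ki by Cheng–Prusoff.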

ROCK2 = ROCK2 (Homo sapiens, UniProt O75116); experiment: In vitro inhibitory activity assay ROCK2 (ADP-Glo); settings: ATP 200 μM, Cheng-Prusoff; read-out: ROCK2 (Ki, range of activity)
Sequence of ROCK2 (O75116 whole entry): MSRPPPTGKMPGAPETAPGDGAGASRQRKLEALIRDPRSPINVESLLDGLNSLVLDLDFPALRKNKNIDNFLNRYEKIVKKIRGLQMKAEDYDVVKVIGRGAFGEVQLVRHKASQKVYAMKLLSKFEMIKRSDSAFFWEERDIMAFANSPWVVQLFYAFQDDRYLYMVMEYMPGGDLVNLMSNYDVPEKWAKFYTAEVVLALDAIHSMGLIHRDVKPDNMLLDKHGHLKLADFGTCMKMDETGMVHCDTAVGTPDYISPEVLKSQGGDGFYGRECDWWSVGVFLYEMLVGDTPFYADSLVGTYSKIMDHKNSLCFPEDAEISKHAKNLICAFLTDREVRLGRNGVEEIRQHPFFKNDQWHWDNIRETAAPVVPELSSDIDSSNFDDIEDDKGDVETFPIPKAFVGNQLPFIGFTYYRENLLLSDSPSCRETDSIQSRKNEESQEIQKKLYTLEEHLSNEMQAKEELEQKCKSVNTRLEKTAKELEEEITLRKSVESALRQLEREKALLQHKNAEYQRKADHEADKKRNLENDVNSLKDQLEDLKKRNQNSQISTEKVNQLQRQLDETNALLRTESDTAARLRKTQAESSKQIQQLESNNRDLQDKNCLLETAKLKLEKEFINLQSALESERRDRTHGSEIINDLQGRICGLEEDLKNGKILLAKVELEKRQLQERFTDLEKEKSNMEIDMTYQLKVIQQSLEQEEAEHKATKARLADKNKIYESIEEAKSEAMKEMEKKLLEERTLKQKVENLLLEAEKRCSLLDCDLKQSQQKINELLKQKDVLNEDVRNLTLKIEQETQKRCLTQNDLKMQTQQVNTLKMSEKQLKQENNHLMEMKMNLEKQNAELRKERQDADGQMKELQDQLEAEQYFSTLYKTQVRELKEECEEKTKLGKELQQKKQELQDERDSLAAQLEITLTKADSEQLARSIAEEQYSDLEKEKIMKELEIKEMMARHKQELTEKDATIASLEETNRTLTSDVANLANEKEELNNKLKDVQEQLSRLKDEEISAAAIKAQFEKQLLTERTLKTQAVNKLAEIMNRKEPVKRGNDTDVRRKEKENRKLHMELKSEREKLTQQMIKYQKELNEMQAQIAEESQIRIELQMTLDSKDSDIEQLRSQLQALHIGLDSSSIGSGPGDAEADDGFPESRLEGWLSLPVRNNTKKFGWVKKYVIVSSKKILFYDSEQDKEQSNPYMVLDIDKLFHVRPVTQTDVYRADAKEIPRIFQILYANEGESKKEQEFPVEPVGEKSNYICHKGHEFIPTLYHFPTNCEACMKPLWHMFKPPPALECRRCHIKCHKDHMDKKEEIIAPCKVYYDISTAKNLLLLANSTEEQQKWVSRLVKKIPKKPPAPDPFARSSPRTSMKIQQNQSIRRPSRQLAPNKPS
Procedure, shortened: as §1

PKA = PKA (Homo sapiens, UniProt P17612); experiment: In vitro inhibitory activity assay for PKA (ADP-Glo), reported as selectivity ratio vs ROCK2; settings: Ki value for PKA divided by Ki value of ROCK2
Procedure, shortened: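 ADP-Glo PKA assay at 25° C in 40 mM Tris pH7.5, 20 mM MgCl2, 0.1 mg/ml BSA, 50 μM DTT, 260 μM kemptide, 1% DMSO. Compound preincubated 30 mins with enzyme, then 30 minute reaction at 10 μM ATP final; luminescence read. IC50 from sigmoidal fit, Ki via Cheng-Prusoff, reported as selectivity ratio vs ROCK-2.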

Sequence of ROCK1 (Q13464 whole entry): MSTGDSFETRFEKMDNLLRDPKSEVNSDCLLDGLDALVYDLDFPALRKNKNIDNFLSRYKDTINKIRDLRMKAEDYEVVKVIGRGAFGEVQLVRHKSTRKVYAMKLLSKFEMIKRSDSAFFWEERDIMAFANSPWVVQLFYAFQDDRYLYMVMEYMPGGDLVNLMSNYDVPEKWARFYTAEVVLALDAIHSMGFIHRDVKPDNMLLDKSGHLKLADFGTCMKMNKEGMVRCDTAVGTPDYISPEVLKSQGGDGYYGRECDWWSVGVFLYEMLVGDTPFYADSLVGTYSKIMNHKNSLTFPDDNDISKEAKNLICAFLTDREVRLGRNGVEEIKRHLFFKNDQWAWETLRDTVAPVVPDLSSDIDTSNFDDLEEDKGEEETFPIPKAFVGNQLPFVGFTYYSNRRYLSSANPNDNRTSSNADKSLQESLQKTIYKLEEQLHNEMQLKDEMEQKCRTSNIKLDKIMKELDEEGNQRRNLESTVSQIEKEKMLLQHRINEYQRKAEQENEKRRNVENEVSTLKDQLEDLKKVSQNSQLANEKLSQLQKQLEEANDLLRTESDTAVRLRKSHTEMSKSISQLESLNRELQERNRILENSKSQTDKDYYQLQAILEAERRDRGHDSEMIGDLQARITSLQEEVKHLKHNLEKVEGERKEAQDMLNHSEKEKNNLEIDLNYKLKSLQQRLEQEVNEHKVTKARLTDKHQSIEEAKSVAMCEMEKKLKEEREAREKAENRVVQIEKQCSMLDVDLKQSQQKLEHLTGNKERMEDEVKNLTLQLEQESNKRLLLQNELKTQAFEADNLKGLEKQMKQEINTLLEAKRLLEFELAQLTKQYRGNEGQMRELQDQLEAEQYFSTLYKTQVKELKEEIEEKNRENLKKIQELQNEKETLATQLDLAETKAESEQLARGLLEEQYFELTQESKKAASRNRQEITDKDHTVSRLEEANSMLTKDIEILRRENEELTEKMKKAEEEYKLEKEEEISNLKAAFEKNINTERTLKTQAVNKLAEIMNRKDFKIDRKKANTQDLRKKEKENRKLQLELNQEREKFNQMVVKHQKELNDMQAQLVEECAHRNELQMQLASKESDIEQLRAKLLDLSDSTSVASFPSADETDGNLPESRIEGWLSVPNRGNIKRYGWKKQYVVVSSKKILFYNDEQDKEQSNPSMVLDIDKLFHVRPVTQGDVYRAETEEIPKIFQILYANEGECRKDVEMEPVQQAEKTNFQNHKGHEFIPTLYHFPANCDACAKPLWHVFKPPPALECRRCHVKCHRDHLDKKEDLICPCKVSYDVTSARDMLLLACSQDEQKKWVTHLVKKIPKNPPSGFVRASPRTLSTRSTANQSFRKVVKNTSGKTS

Ki (ROCK1) | Ki (ROCK2) | Ratio (PKA/ROCK2) (PKA) | Compound
3 to 30 nM | 3 to 30 nM | *** (ratio≥10) | Nc1nccc(-c2cnc(NCc3cccc(C(=O)NC4CCOCC4)c3F)c3c2OCC3)n1 [Example 56, 3-(((7-(2-Aminopyrimidin-4-yl)-2,3-dihydrofuro[3,2-c]pyridin-4-yl)amino)methyl)-2-fluoro-N-(tetrahydro-2H-pyran-4-yl)benzamide]
3 to 30 nM | ≤ 3 nM | *** (ratio≥10) | Nc1nccc(-c2cnc(NCc3ccc(F)c(C(=O)NC4CCOCC4)c3)c3c2OCC3)n1 [Example 58, 5-(((7-(2-Aminopyrimidin-4-yl)-2,3-dihydrofuro[3,2-c]pyridin-4-yl)amino)methyl)-2-fluoro-N-(tetrahydro-2H-pyran-4-yl)benzamide]
≤ 3 nM | ≤ 3 nM | *** (ratio≥10) | CNC(=O)c1cc(F)cc(CNc2ncc(-c3ccnc(N)n3)c3c2CCO3)c1 [Example 59, 3-(((7-(2-Aminopyrimidin-4-yl)-2,3-dihydrofuro[3,2-c]pyridin-4-yl)amino)methyl)-5-fluoro-N-methylbenzamide]
≤ 3 nM | ≤ 3 nM | *** (ratio≥10) | COCCCNC(=O)c1cc(F)cc(CNc2ncc(-c3ccnc(N)n3)c3c2CCO3)c1 [Example 60, 3-(((7-(2-Aminopyrimidin-4-yl)-2,3-dihydrofuro[3,2-c]pyridin-4-yl)amino)methyl)-5-fluoro-N-(3-methoxypropyl)benzamide]
> 30 nM | 3 to 30 nM | *** (ratio≥10) | Nc1nccc(-c2cnc(NCc3cc(C(=O)NC4CCOCC4)ccc3F)c3c2OCC3)n1 [Example 61, 3-(((7-(2-Aminopyrimidin-4-yl)-2,3-dihydrofuro[3,2-c]pyridin-4-yl)amino)methyl)-4-fluoro-N-(tetrahydro-2H-pyran-4-yl)benzamide]
> 30 nM | 3 to 30 nM | *** (ratio≥10) | COCCCNC(=O)c1ccc(F)c(CNc2ncc(-c3ccnc(N)n3)c3c2CCO3)c1 [Example 62, 3-(((7-(2-Aminopyrimidin-4-yl)-2,3-dihydrofuro[3,2-c]pyridin-4-yl)amino)methyl)-4-fluoro-N-(3-methoxypropyl)benzamide]
> 30 nM | 3 to 30 nM | *** (ratio≥10) | CNC(=O)c1cccc(CNc2ncc(-c3ccnc(N)n3)c3c2CCO3)n1 [Example 63, 6-(((7-(2-Aminopyrimidin-4-yl)-2,3-dihydrofuro[3,2-c]pyridin-4-yl)amino)methyl)-N-methylpicolinamide]
3 to 30 nM | ≤ 3 nM | *** (ratio≥10) | COCCCC(=O)Nc1cccc(CNc2ncc(-c3ccnc(N)n3)c3c2CCO3)c1 [Example 64, N-(3-(((7-(2-aminopyrimidin-4-yl)-2,3-dihydrofuro[3,2-c]pyridin-4-yl)amino)methyl)phenyl)-4-methoxybutanamide]

Compound | Ki (ROCK1) | Ki (ROCK2) | Ratio (PKA/ROCK2) (PKA)
COCCCNC(=O)c1cc(CNc2ncc(-c3ccnc(N)n3)c3c2CCO3)ccc1F [Example 57, 5-(((7-(2-Aminopyrimidin-4-yl)-2,3-dihydrofuro[3,2-c]pyridin-4-yl)amino)methyl)-2-fluoro-N-(3-methoxypropyl)benzamide] | 3 to 30 nM | ≤ 3 nM | *** (ratio≥10)
